Reference: paper PMC8426393, “Interactions of anti-COVID-19 drug candidates with hepatic transporters may cause liver toxicity and affect pharmacokinetics” (Scientific Reports, 2021)
Entries after “also recorded” stand apart in the source; their conditions may differ.

What was measured:
ABCC2/MRP2 = target: T1, ABCC2/MRP2 (Homo sapiens, UniProt Q92887); test: MRP2 vesicular transport: ATP-dependent CDCF uptake into inverted Sf9 membrane vesicles; assay type: biochemical; details: CDCF 5 µM, 37 °C, 10 min, Sf9 vesicles
T1 construct: made in house; host or cells: Sf9 insect cells (baculovirus)

ABCG2/BCRP = test system: ABCG2/BCRP; set-up: method as in Telbisz et al., 2021; details: vesicular transporter assay, measured previously; ref Telbisz et al., 2021; cited from earlier work
ABCC3/MRP3 = target: T2, ABCC3/MRP3 (Homo sapiens, UniProt O15438); test: MRP3 vesicular transport: ATP- and benzbromarone-sensitive CDCF uptake into inverted HEK-293 membrane vesicles; assay type: biochemical
T2 construct: purchased Solvo Biotechnology (Budapest, Hungary); host or cells: HEK-293 cells

ABCB1/Pgp = test system: ABCB1/Pgp; set-up: method as in Telbisz et al., 2021; details: vesicular transporter assay, measured previously; ref Telbisz et al., 2021; cited from earlier work
MATE1/SLC47A1 = target: T3, MATE1/SLC47A1 (Homo sapiens, UniProt Q96FL8); test: MATE1-dependent metformin uptake in MATE1-overexpressing MDCKII cells; assay type: cell-based; details: metformin 10 µM, 10 min, 37 °C, MDCKII cells
T3 construct: expressed in transfected cells; host or cells: MDCKII cells, lentiviral transduction
T3 sequence (Q96FL8 1-570): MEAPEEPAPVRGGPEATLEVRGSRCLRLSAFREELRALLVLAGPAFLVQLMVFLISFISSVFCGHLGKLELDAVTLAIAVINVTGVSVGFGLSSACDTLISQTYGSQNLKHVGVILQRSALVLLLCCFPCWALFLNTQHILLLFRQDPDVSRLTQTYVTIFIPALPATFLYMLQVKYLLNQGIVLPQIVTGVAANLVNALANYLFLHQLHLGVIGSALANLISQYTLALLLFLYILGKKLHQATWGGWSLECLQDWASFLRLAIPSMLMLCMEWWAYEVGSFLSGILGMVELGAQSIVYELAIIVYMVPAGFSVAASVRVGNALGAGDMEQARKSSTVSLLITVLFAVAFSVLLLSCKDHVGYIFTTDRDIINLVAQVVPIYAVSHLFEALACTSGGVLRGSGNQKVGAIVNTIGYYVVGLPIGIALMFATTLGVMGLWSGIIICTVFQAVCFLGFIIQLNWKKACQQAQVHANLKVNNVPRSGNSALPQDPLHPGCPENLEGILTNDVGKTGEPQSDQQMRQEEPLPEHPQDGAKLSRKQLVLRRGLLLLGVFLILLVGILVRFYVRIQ

OCT1/SLC22A1 = target: T4, OCT1/SLC22A1 (Homo sapiens, UniProt O15245); test: OCT1-dependent metformin uptake in OCT1-overexpressing HEK-293 cells; assay type: cell-based
T4 construct: expressed in transfected cells; host or cells: HEK-293 cells, lentiviral transduction
T4 sequence (O15245 1-554): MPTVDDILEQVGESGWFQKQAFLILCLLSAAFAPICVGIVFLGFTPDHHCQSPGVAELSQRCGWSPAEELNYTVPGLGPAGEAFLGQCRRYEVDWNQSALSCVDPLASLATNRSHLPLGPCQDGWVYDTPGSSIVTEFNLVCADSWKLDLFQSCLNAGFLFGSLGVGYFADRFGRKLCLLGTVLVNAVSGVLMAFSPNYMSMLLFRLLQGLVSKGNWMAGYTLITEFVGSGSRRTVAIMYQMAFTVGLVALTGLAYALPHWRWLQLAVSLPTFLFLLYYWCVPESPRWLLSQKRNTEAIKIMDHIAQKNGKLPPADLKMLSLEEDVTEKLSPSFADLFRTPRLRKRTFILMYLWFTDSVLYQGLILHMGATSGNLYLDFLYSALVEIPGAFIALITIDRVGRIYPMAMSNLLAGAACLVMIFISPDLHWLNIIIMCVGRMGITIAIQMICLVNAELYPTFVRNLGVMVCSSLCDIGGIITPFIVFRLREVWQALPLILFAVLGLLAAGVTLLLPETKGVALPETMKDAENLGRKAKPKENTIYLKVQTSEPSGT

ABCC4/MRP4 = target: T5, ABCC4/MRP4 (Homo sapiens, UniProt O15439); test: MRP4 vesicular transport: ATP-dependent DHEAS uptake into inverted HEK-293 membrane vesicles; assay type: biochemical; details: DHEAS 0.5 µM, 32 °C, […], HEK-293 vesicles
T5 construct: purchased Solvo Biotechnology (Budapest, Hungary); host or cells: HEK-293 cells
T5 sequence (O15439 1-1325): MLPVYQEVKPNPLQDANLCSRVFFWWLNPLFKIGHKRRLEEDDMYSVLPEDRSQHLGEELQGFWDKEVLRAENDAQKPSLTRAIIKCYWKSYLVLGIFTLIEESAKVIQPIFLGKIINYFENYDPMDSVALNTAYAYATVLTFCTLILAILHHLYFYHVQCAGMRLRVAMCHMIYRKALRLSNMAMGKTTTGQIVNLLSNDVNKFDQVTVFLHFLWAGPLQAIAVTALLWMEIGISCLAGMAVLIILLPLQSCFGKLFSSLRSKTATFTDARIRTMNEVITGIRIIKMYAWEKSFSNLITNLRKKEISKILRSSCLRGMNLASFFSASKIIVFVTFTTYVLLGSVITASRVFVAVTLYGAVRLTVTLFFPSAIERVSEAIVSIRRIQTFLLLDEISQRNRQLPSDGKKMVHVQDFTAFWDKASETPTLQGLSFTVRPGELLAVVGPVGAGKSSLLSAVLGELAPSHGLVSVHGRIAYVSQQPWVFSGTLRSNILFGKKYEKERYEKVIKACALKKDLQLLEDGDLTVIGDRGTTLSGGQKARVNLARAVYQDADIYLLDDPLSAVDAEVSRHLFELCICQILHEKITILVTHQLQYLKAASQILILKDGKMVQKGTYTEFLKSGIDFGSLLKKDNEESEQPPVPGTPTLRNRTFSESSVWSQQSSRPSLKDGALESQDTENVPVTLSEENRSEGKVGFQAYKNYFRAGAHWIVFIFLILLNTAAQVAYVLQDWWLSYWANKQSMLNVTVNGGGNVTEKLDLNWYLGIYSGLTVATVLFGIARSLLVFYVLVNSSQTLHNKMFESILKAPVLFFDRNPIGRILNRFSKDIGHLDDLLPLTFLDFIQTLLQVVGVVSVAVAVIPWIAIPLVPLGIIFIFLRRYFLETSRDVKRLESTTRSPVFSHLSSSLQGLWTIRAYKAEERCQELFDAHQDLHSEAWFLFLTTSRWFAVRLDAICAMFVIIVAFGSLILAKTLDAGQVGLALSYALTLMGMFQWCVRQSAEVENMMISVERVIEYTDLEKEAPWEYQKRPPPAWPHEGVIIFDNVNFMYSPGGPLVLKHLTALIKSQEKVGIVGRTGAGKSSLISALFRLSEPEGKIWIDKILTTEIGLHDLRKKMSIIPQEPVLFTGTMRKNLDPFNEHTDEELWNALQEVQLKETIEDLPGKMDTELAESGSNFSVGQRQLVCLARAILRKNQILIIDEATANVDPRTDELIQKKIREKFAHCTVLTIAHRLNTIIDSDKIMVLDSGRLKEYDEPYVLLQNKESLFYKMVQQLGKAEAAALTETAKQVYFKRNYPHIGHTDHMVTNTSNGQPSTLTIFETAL

ABCB11/BSEP = target: T6, ABCB11/BSEP (Homo sapiens, UniProt O95342); test: BSEP vesicular transport: ATP- and glyburide-sensitive taurocholate uptake into inverted HEK-293 membrane vesicles; assay type: biochemical; details: taurocholate 2 µM, 37 °C, 10 min, HEK-293 vesicles
T6 construct: purchased Solvo Biotechnology (Budapest, Hungary); host or cells: HEK-293 cells

[1] = Kaletra 400 mg lopinavir and 100 mg ritonavir in combination; cited from earlier work

T6 sequence (O95342 whole entry): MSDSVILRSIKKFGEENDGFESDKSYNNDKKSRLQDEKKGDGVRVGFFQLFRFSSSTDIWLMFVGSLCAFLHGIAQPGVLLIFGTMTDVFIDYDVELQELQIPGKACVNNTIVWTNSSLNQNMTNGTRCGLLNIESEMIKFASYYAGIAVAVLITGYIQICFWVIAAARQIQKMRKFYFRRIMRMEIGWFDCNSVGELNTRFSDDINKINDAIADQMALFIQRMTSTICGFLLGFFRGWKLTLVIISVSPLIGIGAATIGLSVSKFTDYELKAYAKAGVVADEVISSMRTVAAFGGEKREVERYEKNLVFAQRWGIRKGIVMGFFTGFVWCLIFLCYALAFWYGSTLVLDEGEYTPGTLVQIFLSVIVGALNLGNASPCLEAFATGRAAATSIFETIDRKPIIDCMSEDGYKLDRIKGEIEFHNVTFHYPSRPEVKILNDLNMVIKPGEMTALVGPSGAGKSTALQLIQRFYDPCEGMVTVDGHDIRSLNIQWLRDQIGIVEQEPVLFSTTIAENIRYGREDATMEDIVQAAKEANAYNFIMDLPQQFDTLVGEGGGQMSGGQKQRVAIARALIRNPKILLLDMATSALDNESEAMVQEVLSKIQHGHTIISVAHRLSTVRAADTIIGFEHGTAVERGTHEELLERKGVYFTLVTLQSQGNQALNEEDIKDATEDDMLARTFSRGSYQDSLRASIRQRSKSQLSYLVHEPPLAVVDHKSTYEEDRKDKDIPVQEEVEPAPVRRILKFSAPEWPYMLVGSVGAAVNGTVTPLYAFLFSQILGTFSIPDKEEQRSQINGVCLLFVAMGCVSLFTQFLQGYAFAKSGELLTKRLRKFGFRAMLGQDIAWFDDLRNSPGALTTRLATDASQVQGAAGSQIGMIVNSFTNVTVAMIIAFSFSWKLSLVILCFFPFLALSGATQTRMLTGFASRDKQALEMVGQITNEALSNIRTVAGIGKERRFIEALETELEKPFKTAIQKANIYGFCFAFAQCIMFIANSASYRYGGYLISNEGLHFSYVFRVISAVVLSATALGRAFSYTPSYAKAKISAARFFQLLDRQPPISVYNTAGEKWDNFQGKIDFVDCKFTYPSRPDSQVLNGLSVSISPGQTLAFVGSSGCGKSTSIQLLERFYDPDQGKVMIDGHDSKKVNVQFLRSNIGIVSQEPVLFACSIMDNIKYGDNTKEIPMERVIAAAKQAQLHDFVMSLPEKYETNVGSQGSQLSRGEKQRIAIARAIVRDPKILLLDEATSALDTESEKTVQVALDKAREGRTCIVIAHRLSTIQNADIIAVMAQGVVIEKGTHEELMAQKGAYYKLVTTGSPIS
T2 sequence (O15438 whole entry): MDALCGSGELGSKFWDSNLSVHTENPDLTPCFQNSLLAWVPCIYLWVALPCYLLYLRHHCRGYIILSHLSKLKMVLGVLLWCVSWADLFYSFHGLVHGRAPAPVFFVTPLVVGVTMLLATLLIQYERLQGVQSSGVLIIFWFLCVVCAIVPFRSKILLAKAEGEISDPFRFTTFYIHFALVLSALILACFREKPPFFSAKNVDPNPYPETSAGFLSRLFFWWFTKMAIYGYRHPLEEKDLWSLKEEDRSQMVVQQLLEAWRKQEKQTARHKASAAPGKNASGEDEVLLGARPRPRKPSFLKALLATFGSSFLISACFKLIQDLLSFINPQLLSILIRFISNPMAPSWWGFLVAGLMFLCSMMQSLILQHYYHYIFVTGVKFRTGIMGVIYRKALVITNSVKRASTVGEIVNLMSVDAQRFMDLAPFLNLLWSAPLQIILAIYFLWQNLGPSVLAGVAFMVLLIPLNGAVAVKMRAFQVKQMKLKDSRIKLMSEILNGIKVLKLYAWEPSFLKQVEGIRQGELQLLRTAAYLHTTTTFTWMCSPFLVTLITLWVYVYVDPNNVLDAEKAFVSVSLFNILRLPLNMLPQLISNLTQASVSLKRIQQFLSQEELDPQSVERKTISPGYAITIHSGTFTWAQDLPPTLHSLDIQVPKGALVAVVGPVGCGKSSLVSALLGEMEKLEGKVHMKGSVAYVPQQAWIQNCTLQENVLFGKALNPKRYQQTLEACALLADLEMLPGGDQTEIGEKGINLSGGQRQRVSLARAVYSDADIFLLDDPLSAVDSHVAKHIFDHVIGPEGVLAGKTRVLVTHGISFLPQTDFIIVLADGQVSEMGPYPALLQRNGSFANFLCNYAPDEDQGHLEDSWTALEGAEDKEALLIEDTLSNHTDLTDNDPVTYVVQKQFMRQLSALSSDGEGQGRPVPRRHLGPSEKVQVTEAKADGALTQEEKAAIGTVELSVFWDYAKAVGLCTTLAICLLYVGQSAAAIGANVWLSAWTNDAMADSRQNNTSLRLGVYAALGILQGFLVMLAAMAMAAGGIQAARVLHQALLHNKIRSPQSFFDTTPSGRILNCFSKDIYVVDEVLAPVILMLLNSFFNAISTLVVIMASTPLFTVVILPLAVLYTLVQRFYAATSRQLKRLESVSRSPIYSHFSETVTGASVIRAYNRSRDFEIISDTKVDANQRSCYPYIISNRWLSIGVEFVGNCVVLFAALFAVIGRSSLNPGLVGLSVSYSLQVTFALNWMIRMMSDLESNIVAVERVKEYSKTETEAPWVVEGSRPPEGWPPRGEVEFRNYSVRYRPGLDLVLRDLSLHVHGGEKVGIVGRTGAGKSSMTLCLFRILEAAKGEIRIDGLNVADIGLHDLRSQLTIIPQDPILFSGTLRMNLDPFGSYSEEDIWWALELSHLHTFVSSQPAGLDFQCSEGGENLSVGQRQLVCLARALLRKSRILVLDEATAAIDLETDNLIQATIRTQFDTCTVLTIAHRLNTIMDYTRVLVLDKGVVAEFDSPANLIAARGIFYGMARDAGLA
T1 sequence (Q92887 whole entry): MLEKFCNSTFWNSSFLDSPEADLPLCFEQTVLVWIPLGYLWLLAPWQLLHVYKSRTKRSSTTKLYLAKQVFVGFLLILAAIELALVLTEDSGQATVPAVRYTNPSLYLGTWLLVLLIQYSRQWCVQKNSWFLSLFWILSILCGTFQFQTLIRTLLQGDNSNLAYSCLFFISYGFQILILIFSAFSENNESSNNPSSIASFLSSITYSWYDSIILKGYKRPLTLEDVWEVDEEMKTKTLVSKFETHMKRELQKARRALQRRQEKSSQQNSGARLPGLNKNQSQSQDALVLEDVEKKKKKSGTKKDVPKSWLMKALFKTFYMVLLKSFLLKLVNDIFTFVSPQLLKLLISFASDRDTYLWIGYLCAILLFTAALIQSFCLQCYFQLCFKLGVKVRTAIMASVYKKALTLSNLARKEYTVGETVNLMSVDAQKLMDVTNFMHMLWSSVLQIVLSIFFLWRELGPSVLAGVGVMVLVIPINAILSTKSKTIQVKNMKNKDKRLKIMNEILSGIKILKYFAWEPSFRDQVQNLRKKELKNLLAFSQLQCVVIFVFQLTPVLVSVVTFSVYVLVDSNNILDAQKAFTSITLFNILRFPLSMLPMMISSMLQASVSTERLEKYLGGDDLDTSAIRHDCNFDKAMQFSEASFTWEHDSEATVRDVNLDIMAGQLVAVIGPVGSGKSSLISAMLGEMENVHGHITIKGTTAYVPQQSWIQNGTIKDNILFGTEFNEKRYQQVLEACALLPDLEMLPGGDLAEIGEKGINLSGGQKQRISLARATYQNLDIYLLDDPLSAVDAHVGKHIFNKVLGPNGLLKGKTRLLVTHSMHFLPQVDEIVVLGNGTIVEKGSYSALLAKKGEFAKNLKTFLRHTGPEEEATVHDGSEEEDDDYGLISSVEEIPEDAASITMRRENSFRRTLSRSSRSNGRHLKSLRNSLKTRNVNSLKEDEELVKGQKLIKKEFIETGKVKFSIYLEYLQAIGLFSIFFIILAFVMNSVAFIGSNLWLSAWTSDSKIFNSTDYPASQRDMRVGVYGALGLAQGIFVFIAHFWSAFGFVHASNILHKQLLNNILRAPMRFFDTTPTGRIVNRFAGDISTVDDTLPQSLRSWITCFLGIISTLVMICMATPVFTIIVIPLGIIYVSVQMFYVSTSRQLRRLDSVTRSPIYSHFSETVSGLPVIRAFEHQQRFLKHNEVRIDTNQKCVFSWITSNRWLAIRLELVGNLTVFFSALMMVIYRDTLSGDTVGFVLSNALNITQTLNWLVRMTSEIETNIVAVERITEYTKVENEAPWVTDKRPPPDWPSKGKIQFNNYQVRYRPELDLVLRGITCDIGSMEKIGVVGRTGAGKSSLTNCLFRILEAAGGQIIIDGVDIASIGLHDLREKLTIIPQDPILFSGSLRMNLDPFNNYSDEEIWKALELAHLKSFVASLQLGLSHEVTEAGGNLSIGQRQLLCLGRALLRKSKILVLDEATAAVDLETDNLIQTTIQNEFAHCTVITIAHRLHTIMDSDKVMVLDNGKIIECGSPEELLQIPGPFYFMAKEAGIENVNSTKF

CC(C)c1nc(CN(C)C(=O)N[C@H](C(=O)N[C@@H](Cc2ccccc2)C[C@H](O)[C@H](Cc2ccccc2)NC(=O)OCc2cncs2)C(C)C)cs1 [RIT, ritonavir]
ABCC2/MRP2 Type of effect (ABCC2/MRP2): did not inhibit but rather increased the probe substrate transport at high concentrations; also recorded: Increase
ABCG2/BCRP type of effect (ABCG2/BCRP): inh
ABCC3/MRP3 Type of effect (ABCC3/MRP3; CDCF 5 µM, 37 °C, 10 min, HEK-293 vesicles): inh
concentration at which MRP3 transport is inhibited (ABCC3/MRP3; CDCF uptake): lower than 10 µM
ABCB1/Pgp Type of effect (ABCB1/Pgp): inh
MATE1/SLC47A1 Type of effect (MATE1/SLC47A1): strong inhibitory action and inh
OCT1/SLC22A1 Type of effect (OCT1/SLC22A1; metformin 10 µM, 5 min, 37 °C, HEK-293 cells): strong inhibitory effect and inh
concentration of strong inhibitory effect on OCT1 (OCT1/SLC22A1; metformin uptake): below 10 µM
ABCC4/MRP4 Type of effect (ABCC4/MRP4): No effect
ABCB11/BSEP Type of effect (ABCB11/BSEP): strongly inhibited TC transport at low concentrations and inh
peak plasma concentrations in vivo [1]: 1 to 1.73 µM
